Laboratory results as given in patent publication US20110034703A1, “CRYSTAL FORMS OF N-[2-(DIETHYLAMINO)ETHYL]-5-[(5-FLUORO-1,2-DIHYDRO-2-OXO-3H-INDOL-3-YLIDENE)METHYL]-2,4-DIMETHYL-1H-PYRROLE-3-CARBOXAMIDE AND METHODS FOR THEIR PREPARATION” (ratiopharm GmbH, priority 2008, published 2011).
Entries after “also recorded” stand apart in the source; their conditions may differ.

Assay: Dynamic moisture sorption gravimetry (DMSG), hygroscopicity
Type: physicochemical
Conditions: for hygroscopicity (in words): DMSG data; for moisture sorption referred to the weight of the sample: DMSG, change in RH of 5% per hour
Description: DMSG was performed using an SPS11-100n instrument (Projekt Messtechnik) at a constant temperature of 25° C. and a change in RH of 5% per hour including isohumid conditions for 5 hours at 0% RH and for 2 hours at 50% RH.

Row | Structure (SMILES) | hygroscopicity (in words) | hygroscopicity (in words) (listed as polymorph I) | hygroscopicity (in words) (listed as polymorphic form I) | moisture sorption referred to the weight of the sample (25° C.) | hygroscopicity (in words) (listed as polymorphic form II) | moisture sorption referred to the weight of the sample (25° C., listed as polymorphic form II) | hygroscopicity (in words) (listed as polymorphic form III) | weight gain under DMSG (even at a relative humidity of 95%, 25° C.)
1 | CCN(CC)CCNC(=O)c1c(C)[nH]c(/C=C2\C(=O)Nc3ccc(F)cc32)c1C [Polymorph I, N-[2-(diethylamino)ethyl]-5-[(5-fluoro-1,2-dihydro-2-oxo-3H-indol-3-ylidene)methyl]-2,4-dimethyl-1H-pyrrole-3-carboxamide] | low hygroscopicity; also recorded: only very slightly hygroscopic | only slightly hygroscopic | very low hygroscopicity | about 1% |  |  |  | 
2 | CCN(CC)CCNC(=O)c1c(C)[nH]c(/C=C2\C(=O)Nc3ccc(F)cc32)c1C [Polymorph II, N-[2-(diethylamino)ethyl]-5-[(5-fluoro-1,2-dihydro-2-oxo-3H-indol-3-ylidene)methyl]-2,4-dimethyl-1H-pyrrole-3-carboxamide] | clearly hygroscopic |  |  |  | slightly more hygroscopic; also recorded: some hygroscopicity | more than 6% |  | 
3 | CCN(CC)CCNC(=O)c1c(C)[nH]c(/C=C2\C(=O)Nc3ccc(F)cc32)c1C [Polymorph III, N-[2-(diethylamino)ethyl]-5-[(5-fluoro-1,2-dihydro-2-oxo-3H-indol-3-ylidene)methyl]-2,4-dimethyl-1H-pyrrole-3-carboxamide] | very low hygroscopicity; also recorded: not hygroscopic at all |  |  |  |  |  | not hygroscopic | does not gain weight
